For orientation: Ki means a dissociation constant, usually derived from enzyme kinetics or from competition with a known ligand.

From US20050209278A1, “Piperidinyl- and piperazinyl-sulfonylmethyl hydroxamic acids and their use as protease inhibitors” (priority 2002, published 2005) come the findings set out here.

Each structure is given as a SMILES string. Where a name gives a salt, the structure may show the parent alone. Read-outs that look alike come from different tables or passages of the source. Bounds are passed on as bounds.

The target in experiment [1] is T1, MMP-13 (Homo sapiens, UniProt P45452).
T1 construct: made in house; host or cells: baculovirus / insect cells
Kind of experiment: In vitro MMP inhibition, Ki determination (fluorogenic substrate II). The experiment is classed as biochemical. Conditions: human recombinant enzyme, 4 μM substrate II, room temperature, 1 hr. Here is the method:
(§1) Several hydroxamic acids and salts thereof were analyzed in in vitro assays to determine their ability to inhibit the MMP cleavage of peptide substrates. […] and IC50 constants were calculated from the assayed hydroxamic acid-MMP interactions.
(§2) Human recombinant MMP-1, MMP-2, MMP-9, MMP-13, and MMP-14 were used in this assay. All enzymes were prepared in Assignee's laboratories following usual laboratory procedures. Protocols for the preparation and use of these enzymes are available in the scientific literature. See, e.g., Enzyme Nomenclature (Academic Press, San Diego, Calif., 1992) (and the citations therein). See also, Freije et al., “Molecular cloning and expression of collagenase-3, a novel human matrix metalloproteinase produced by breast carcinomas,” J Biol. Chem., 269(24), 16766-16773 (1994).
The MMP-13 was obtained as a proenzyme from a full-length cDNA clone using baculovirus, as described by V. A. Luckow, “Insect Cell Expression Technology,” Protein Engineering: Principles and Practice, pp. 183-218 (edited by J. L. Cleland et al., Wiley-Liss, Inc., 1996). The expressed proenzyme was first purified over a heparin agarose column, and then over a chelating zinc chloride column. The proenzyme was then activated by APMA for use in the assay. […] See also, O'Reilly et al, Baculovirus Expression Vectors: A Laboratory Manual (W.H. Freeman and Co., New York, N.Y., 1992). See also, King et al., The Baculovirus Expression System: A Laboratory Guide (Chapman & Hall, London, England, 1992).
(§3) All MMPs were activated using 4-aminophenylmercuric acetate (“APMA”, Sigma Chemical, St. Louis, Mo.) or trypsin. MMP-9 also was activated using human recombinant MMP-3 (purified in Assignee's laboratory following standard cloning and purification techniques).
(§4) Two fluorogenic, methoxycoumarin-containing polypeptide substrates were used in the MMP inhibition assays: [drawing 427] Here, “Dpa” is 3-(2,4-dinitrophenyl)-L-2,3-diaminopropionyl group, and “MCA” is 7-methoxycoumarin-4-yl acetyl. Substrate (I) was purchased from Baychem (Redwood City, Calif.), and substrate II was prepared Assignee's laboratory. Substrate I was used in the IC50 determination assays, while substrate II was used in the Ki determination assays. In the absence of MMP inhibitory activity, either substrate is cleaved at the Gly-Leu peptide bond. This cleavage separates the highly fluorogenic peptide from the 2,4-dinitrophenyl quencher, thus resulting in increase of fluorescent intensity.
(§5) The stock solutions of the assayed hydroxamic acids (or salts thereof) were prepared in 1% dimethyl sulfoxide (DMSO). These stock solutions were diluted in Buffer A (100 mM Tris-HCl, 100 mM NaCl, 10 mM CaCl2, 0.05% polyoxyethylene 23 lauryl ether, pH 7.5) to obtain solutions with different hydroxamic acid concentrations, i.e., assay solutions with different concentrations of the assayed MMP inhibitory compound. The experiment controls contained the same amount of Buffer A/DMSO as the assayed sample, but contained no hydroxamic acid (or salt thereof).
(§6) The assays from which the Ki determinations were made were performed as follows. The assayed hydroxamic acid samples were incubated in separate wells of untreated white polystyrene plates (Nunc Nalgene International, Rochester, N.Y.), and analyzed on a Tecan SpectraFlour Plus plate reader. The excitation wavelength was 330 nm, and the emission wavelength—420 nm. All samples (assayed hydroxamic acids and controls) were incubated in separate plate wells at room temperature for 1 hr in the presence of 4 μM of MMP substrate (II). In the absence of MMP inhibitory activity, substrate II was cleaved at the Gly-Leu bond resulting in an increase of relative fluorescence. Inhibition was observed as a reduced rate of this increase in relative fluorescence. The various hydroxamic acids were analyzed using a single low enzyme concentration with a single substrate concentration fixed at or below the Km.

The target in experiment [2] is T2, MMP-14 (Homo sapiens, UniProt P50281).
T2 construct: The catalytic domain enzyme was expressed in E. coli inclusion bodies, solubilized in urea; made in house
The experiment is described as above. The class given is biochemical. Conditions: read-out: MMP-14 Ki. Here is the method:
as §1, §2
The MMP-14 full length cDNA was provided by Dr. Gregory Goldberg of Washington University (St. Louis, Mo.). The catalytic domain enzyme was expressed in E. coli inclusion bodies, solubilized in urea, purified on a preparative […] reverse phase HPLC column, and then refolded in the presence of zinc acetate and purified for use.
as §3, §4, §5
as §6, with “Km. This protocol is a modification of method by Knight et al., FEBS Lett., 296(3), 263-266 (1992). Apparent inhibitory constants were determined by non-linear regression of reaction velocity as a function of inhibitor and enzyme concentration using Morrison's equation, as described by Kuzmic, Anal. Biochem. 286, 45-50 (2000).” for “Km.”

The mark [3] stands for this setting: human recombinant enzyme (catalytic domain), 4 μM substrate II, room temperature, 1 hr.

With `CCCCc1cnc(N2CCN(S(=O)(=O)C3(C(=O)NO)CCOCC3)CC2)cn1` [Example 1, 4-{[4-(5-butylpyrazin-2-yl)piperazin-1-yl]sulfonyl}-N-hydroxytetrahydro-2H-pyran-4-carboxamide Dihydrochloride], the Ki in experiment [1] (MMP-13 Ki) is 1.82 nM; in experiment [2] (setting [3]), 4290 nM.
Take `O=C(NO)C1(S(=O)(=O)N2CCN(c3ccc(OCC(F)(F)F)cc3)CC2)CCOCC1` [Example 2, N-hydroxy-4-({4-[4-(2,2,2-trifluoroethoxy)phenyl]piperazin-1-yl}sulfonyl)tetrahydro-2H-pyran-4-carboxamide Hydrochloride]: the Ki in experiment [1] (read-out: MMP-13 Ki) worked out at 0.77 nM; in experiment [2] (setting [3]), 1940 nM.
Taken in the same sequence, the figures for `CCOc1ccc(N2CCN(S(=O)(=O)C3(C(=O)NO)CCOCC3)CC2)cc1` [Example 3, 4-{[4-(4-ethoxyphenyl)piperazinyl]sulfonyl}perhydro-2H-pyran-4-carbohydroxamic Acid] were 1.46 nM and 1260 nM.
Taken in the same sequence, the figures for `O=C(NO)C1(S(=O)(=O)N2CCN(c3ccc(OC(F)(F)C(F)F)cc3)CC2)CCOCC1` [Example 4, 4-({4-[4-(1,1,2,2-tetrafluoroethoxy)phenyl]piperazinyl}sulfonyl)perhydro-2H-pyran-4-carbohydroxamic Acid] were 0.216 nM and 954 nM.
Taken in the same sequence, the figures for `CCCCc1ccc(N2CCN(S(=O)(=O)C3(C(=O)NO)CCN(CCOC)CC3)CC2)cc1` [Example 5, 4-{[4-(4-butylphenyl)piperazin-1-yl]sulfonyl}-N-hydroxy-1-(2-methoxyethyl)piperidine-4-carboxamide Dihydrochloride] were 0.522 nM and 1550 nM.
As for `CCCCCc1ccc(N2CCN(S(=O)(=O)C3(C(=O)NO)CCN(CCOC)CC3)CC2)cc1` [Example 6, N-Hydroxy-1-(2-methoxyethyl)-4-{[4-(4-pentylphenyl)piperazin-1-yl]sulfonyl}piperidine-4-carboxamide Dihydrochloride], the Ki is 0.27 nM in experiment [1] (read-out: MMP-13 Ki) and 2300 nM in experiment [2] (setting [3]).
Taken in the same sequence, the figures for `O=C(NO)C1(S(=O)(=O)N2CCN(c3ccc(OCCCC(F)(F)F)cc3)CC2)CCOCC1` [Example 7, N-hydroxy-4-({4-[4-(4,4,4-trifluorobutoxy)phenyl]piperazin-1-yl}sulfonyl)tetrahydro-2H-pyran-4-carboxamide Hydrochloride] were 0.17 nM and 4330 nM.
Take `COc1ccc(-c2cnc(N3CCN(S(=O)(=O)C4(C(=O)NO)CCOCC4)CC3)nc2)cc1` [Example 8, N-hydroxy-4-({4-[5-(4-methoxyphenyl)pyrimidin-2-yl]piperazin-1-yl}sulfonyl)tetrahydro-2H-pyran-4-carboxamide Hydrochloride]: the Ki in experiment [1] (read-out: MMP-13 Ki) was 0.11 nM; in experiment [2] (setting [3]), 468 nM.
As to `COCCN1CCC(C(=O)NO)(S(=O)(=O)N2CCN(c3ccc(OCCCC(F)(F)F)cc3)CC2)CC1` [Example 9, N-hydroxy-1-(2-methoxyethyl)-4-({4-[4-(4,4,4-trifluorobutoxy)phenyl]piperazin-1-yl}sulfonyl)piperidine-4-carboxamide Dihydrochloride], the Ki is 0.05 nM in experiment [1] (read-out: MMP-13 Ki) and 5910 nM in experiment [2] (setting [3]).
Taken in the same sequence, the figures for `O=C(NO)C1(S(=O)(=O)N2CCN(c3ccc(OCC4CC4)c(F)c3)CC2)CCN(C2CC2)CC1` [Example 10, 1-cyclopropyl-4-[[4-[4-(cyclopropylmethoxy)-3-fluorophenyl]-1-piperazinyl]sulfonyl]-N-hydroxy-4-piperidinecarboxamide, dihydrochloride] were 3.88 nM and 4340 nM.
As for `CCCCOc1ccc(N2CCN(S(=O)(=O)C3(C(=O)NO)CCN(CCOC)CC3)CC2)cc1F` [Example 11, 4-[[4-(4-butoxy-3-fluorophenyl)-1-piperazinyl]sulfonyl]-N-hydroxy-1-(2-methoxyethyl)-4-piperidinecarboxamide, Dihydrochloride], the figures for the Ki in experiment [1] (read-out: MMP-13 Ki) and in experiment [2] (setting [3]) were 0.67 nM and 3600 nM, respectively.
Taken in the same sequence, the figures for `O=C(NO)C1(S(=O)(=O)N2CCN(c3ccc(-c4ccccc4)c(F)c3)CC2)CCOCC1` [Example 12, 4-{[4-(2-fluoro-1,1′-biphenyl-4-yl)piperazin-1-yl]sulfonyl}-N-hydroxytetrahydro-2H-pyran-4-carboxamide Hydrochloride] were 0.77 nM and 1710 nM.
In the case of `CCCCCc1ccc(N2CCN(S(=O)(=O)C3(C(=O)NO)CCN(CCOC)CC3)CC2)cc1F` [Example 13, 4-{[4-(3-fluoro-4-pentylphenyl)piperazin-1-yl]sulfonyl}-N-hydroxy-1-(2-methoxyethyl)piperidine-4-carboxamide Dihydrochloride], the figures for the inhibitory constant (Ki) in experiment [1] (read-out: MMP-13 Ki) and in experiment [2] (setting [3]) were 0.61 nM and 3520 nM, respectively.
With `COCCOc1ccc(N2CCN(S(=O)(=O)C3(C(=O)NO)CCOCC3)CC2)cc1` [Example 14, N-hydroxy-4-({4-[4-(2-methoxyethoxy)phenyl]piperazin-1-yl}sulfonyl)tetrahydro-2H-pyran-4-carboxamide Hydrochloride], the inhibition constant (Ki) in experiment [1] (read-out: MMP-13 Ki) amounted to 2.67 nM; in experiment [2] (setting [3]) it was 9170 nM.
Taken in the same sequence, the figures for `CCCCCc1ccc(C2CCN(S(=O)(=O)C3(C(=O)NO)CCN(CCOC)CC3)CC2)cc1` [Example 15, N-hydroxy-1-(2-methoxyethyl)-4-{[4-(4-pentylpheyl)piperidin-1-yl]sulfonyl}piperidine-4-carboxamide Hydrochloride] were 0.23 nM and 2960 nM.
Regarding `CCCCOc1ccc(C2CCN(S(=O)(=O)C3(C(=O)NO)CCN(CCOC)CC3)CC2)cc1` [Example 16, 4-{[4-(4-butoxyphenyl)piperidin-1-yl]sulfonyl}-N-hydroxy-1-(2-methoxyethyl)piperidine-4-carboxamide Hydrochloride], the inhibition constant (Ki) in experiment [1] (read-out: MMP-13 Ki) came out at 0.34 nM; in experiment [2] (setting [3]) it was 2930 nM.
Turning to `O=C(NO)C1(S(=O)(=O)N2CCN(c3ccc(OCCCC(F)(F)F)cc3F)CC2)CCOCC1` [Example 117], the inhibition constant (Ki) in experiment [2] (value not in parenthesis) is 5690 nM.
For the molecule `CCCCOc1ccc(N2CCN(S(=O)(=O)C3(C(=O)NO)CCN(c4nccc(C(F)(F)F)n4)CC3)CC2)cc1` [Example 130], in experiment [2] (value not in parenthesis), the Ki is over 10000 nM.
